Key:
Type in all cases: in vivo
[1] = test system: Annual bluegrass; assay: Pre-emergence herbicide test; settings: read-out: % plant inhibition (Anbg); for inhibition at 1120 g/ha: 1.12 kg/ha
In short: (§1)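 Known dose of active, dissolved or suspended in acetone or water, delivered onto seed bed prior to emergence and buried under untreated topsoil. Greenhouse incubation with watering from below. Percentage inhibition rated 10-14 days after seeding.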

[2] = test system: Barnyardgrass; assay: Pre-emergence herbicide test; settings: Echinochloa crus-galli, read-out: % plant inhibition (Bygr); for inhibition at 1120 g/ha: 1.12 kg/ha
In short: as §1

[3] = test system: Cocklebur; assay: Pre-emergence herbicide test; settings: Xanthium strumarium, read-out: % plant inhibition (Cobu); for inhibition at 1120 g/ha: 1.12 kg/ha
In short: as §1

[4] = test system: Downy Brome; assay: Pre-emergence herbicide test; settings: Bromus tectorum, read-out: % plant inhibition (Dobr); for inhibition at 1120 g/ha: 1.12 kg/ha
In short: as §1

[5] = test system: Indian Mustard; assay: Pre-emergence herbicide test; settings: Brassica juncea, read-out: % plant inhibition (Inmu); for inhibition at 1120 g/ha: 1.12 kg/ha
In short: as §1

[6] = test system: Morningglory; assay: Pre-emergence herbicide test; settings: Ipomoea, read-out: % plant inhibition (Mogl); for inhibition at 1120 g/ha: 1.12 kg/ha
In short: as §1

[7] = test system: Seedling johnsongrass; assay: Pre-emergence herbicide test; settings: Sorghum halepense, read-out: % plant inhibition (Sejg); for inhibition at 1120 g/ha: 1.12 kg/ha
In short: as §1

[8] = test system: Velvetleaf; assay: Pre-emergence herbicide test; settings: Abutilon theophrasti, read-out: % plant inhibition (Vele); for inhibition at 1120 g/ha: 1.12 kg/ha
In short: as §1

[9] = test system: Wild buckwheat; assay: Pre-emergence herbicide test; settings: Fallopia convolvulus, read-out: % plant inhibition (Wibw); for inhibition at 1120 g/ha: 1.12 kg/ha
In short: as §1

[10] = test system: Yellow nutsedge; assay: Pre-emergence herbicide test; settings: Cyperus, read-out: % plant inhibition (Yens); for inhibition at 1120 g/ha: 1.12 kg/ha
In short: as §1

[11] = test system: Annual bluegrass; assay: Post-emergence herbicide test; settings: read-out: % plant inhibition (Anbg); for inhibition at 1120 g/ha: 1.12 kg/ha
In short: (§2)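 Seeds or propagules are pressed into compacted topsoil, covered and sub-irrigated in the greenhouse. At two to three weeks the plants are atomizer-sprayed (170.3 kPa, 1870 L/Ha, ~0.4% emulsifier by volume). Percent inhibition relative to control is observed about 10–14 days later.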

[12] = test system: Barnyardgrass; assay: Post-emergence herbicide test; settings: Echinochloa crus-galli, read-out: % plant inhibition (Bygr); for inhibition at 1120 g/ha: 1.12 kg/ha
In short: as §2

[13] = test system: Cocklebur; assay: Post-emergence herbicide test; settings: Xanthium strumarium, read-out: % plant inhibition (Cobu); for inhibition at 1120 g/ha: 1.12 kg/ha
In short: as §2

[14] = test system: Downy Brome; assay: Post-emergence herbicide test; settings: Bromus tectorum, read-out: % plant inhibition (Dobr); for inhibition at 1120 g/ha: 1.12 kg/ha
In short: as §2

[15] = test system: Indian Mustard; assay: Post-emergence herbicide test; settings: Brassica juncea, read-out: % plant inhibition (Inmu); for inhibition at 1120 g/ha: 1.12 kg/ha
In short: as §2

[16] = test system: Morningglory; assay: Post-emergence herbicide test; settings: Ipomoea, read-out: % plant inhibition (Mogl); for inhibition at 1120 g/ha: 1.12 kg/ha
In short: as §2

[17] = test system: Seedling johnsongrass; assay: Post-emergence herbicide test; settings: Sorghum halepense, read-out: % plant inhibition (Sejg); for inhibition at 1120 g/ha: 1.12 kg/ha
In short: as §2

[18] = test system: Velvetleaf; assay: Post-emergence herbicide test; settings: Abutilon theophrasti, read-out: % plant inhibition (Vele); for inhibition at 1120 g/ha: 1.12 kg/ha
In short: as §2

[19] = test system: Wild buckwheat; assay: Post-emergence herbicide test; settings: Fallopia convolvulus, read-out: % plant inhibition (Wibw); for inhibition at 1120 g/ha: 1.12 kg/ha
In short: as §2

[20] = test system: Yellow nutsedge; assay: Post-emergence herbicide test; settings: Cyperus, read-out: % plant inhibition (Yens); for inhibition at 1120 g/ha: 1.12 kg/ha
In short: as §2

SMILES	inhibition at 1120 g/ha [1] [%]	inhibition at 1120 g/ha [2] [%]	inhibition at 1120 g/ha [3] [%]	inhibition at 1120 g/ha [4] [%]	inhibition at 1120 g/ha [5] [%]	inhibition at 1120 g/ha [6] [%]	inhibition at 1120 g/ha [7] [%]	inhibition at 1120 g/ha [8] [%]	inhibition at 1120 g/ha [9] [%]	inhibition at 1120 g/ha [10] [%]	inhibition at 1120 g/ha [11] [%]	inhibition at 1120 g/ha [12] [%]	inhibition at 1120 g/ha [13] [%]	inhibition at 1120 g/ha [14] [%]	inhibition at 1120 g/ha [15] [%]	inhibition at 1120 g/ha [16] [%]	inhibition at 1120 g/ha [17] [%]	inhibition at 1120 g/ha [18] [%]	inhibition at 1120 g/ha [19] [%]	inhibition at 1120 g/ha [20] [%]	further results
CCS(=O)(=O)N(c1cc(-c2nn(C)c(C(F)(F)F)c2Cl)c(Cl)cc1Cl)S(=O)(=O)CC [Compound 90]	–	–	–	–	–	–	–	–	–	–	–	–	–	–	–	–	–	–	–	–	inhibition at 11210 g/ha ([1]; 11.21 kg/ha): 10%; inhibition at 11210 g/ha ([2]; 11.21 kg/ha): 10%; inhibition at 11210 g/ha ([3]; 11.21 kg/ha): 0%; inhibition at 11210 g/ha ([4]; 11.21 kg/ha): 10%; inhibition at 11210 g/ha ([5]; 11.21 kg/ha): 10%; inhibition at 11210 g/ha ([6]; 11.21 kg/ha): 10%; inhibition at 11210 g/ha ([7]; 11.21 kg/ha): 50%; inhibition at 11210 g/ha ([8]; 11.21 kg/ha): 20%; inhibition at 11210 g/ha ([9]; 11.21 kg/ha): 30%; inhibition at 11210 g/ha ([10]; 11.21 kg/ha): 0%; inhibition at 11210 g/ha ([11]; 11.21 kg/ha): 10%; inhibition at 11210 g/ha ([12]; 11.21 kg/ha): 0%; inhibition at 11210 g/ha ([13]; 11.21 kg/ha): 30%; inhibition at 11210 g/ha ([14]; 11.21 kg/ha): 10%; inhibition at 11210 g/ha ([15]; 11.21 kg/ha): 50%; inhibition at 11210 g/ha ([16]; 11.21 kg/ha): 60%; inhibition at 11210 g/ha ([17]; 11.21 kg/ha): 0%; inhibition at 11210 g/ha ([18]; 11.21 kg/ha): 100%; inhibition at 11210 g/ha ([19]; 11.21 kg/ha): 50%; inhibition at 11210 g/ha ([20]; 11.21 kg/ha): 0%
Cn1nc(-c2cc(NS(C)(=O)=O)c(Cl)cc2Cl)c(Cl)c1C(F)(F)F [Compound 91]	0	0	20	0	90	90	0	100	70	0	50	30	100	40	50	60	40	40	80	10	–
CCS(=O)(=O)Nc1cc(-c2nn(C)c(C(F)(F)F)c2Cl)c(Cl)cc1Cl [Compound 92]	0	0	20	0	20	80	0	90	80	0	30	30	80	50	80	100	40	100	80	20	–
Cn1nc(-c2cc(S)c(Cl)cc2Cl)c(Cl)c1C(F)(F)F [Compound 93]	0	0	20	0	10	30	0	20	20	0	10	70	70	50	60	60	40	90	90	0	–
COc1cc(-c2nn(C)c(C(F)(F)F)c2Cl)c(F)cc1Br [Compound 94]	100	100	60	100	100	90	100	100	100	20	90	100	80	100	80	90	90	100	100	10	–
